# Laboratory results taken from ChEMBL document CHEMBL1157539, “Thousands of chemical starting points for antimalarial lead identification” (Nature, 2010).
# Tested on: Plasmodium falciparum
# Test: GSK_TCMDC: Inhibition of Plasmodium falciparum 3D7 in whole erythrocytes, using parasite LDH activity as an index of growth.
# Type: functional, organism-based
# Conditions: Plasmodium falciparum, 3D7
row,SMILES,XC50 [nM]
1,Cc1ncccc1C(=O)Nc1cccc(-c2cccc(-c3nc4cc(C(F)(F)F)ccc4[nH]3)c2)c1,602
2,S=C(NN=Cc1ccccn1)NC1CC2C=CC1C2 (stereo not drawn),721
3,CC(C)COc1ccc(Cl)cc1Cc1ccc(-c2nc3cc(F)c(F)cc3[nH]2)o1,894
4,N#Cc1ccc2c(c1)CCN(CCC1CCC(NC(=O)/C=C/c3ccc(F)c4ccccc34)CC1)CC2 (stereo not drawn),844
5,O=c1ccc2ccc(F)c3c2n1CC3CN1CCC(NCc2cccc(-c3cccs3)c2)CC1 (stereo not drawn),834
6,Nc1cc(C(F)(F)F)ccc1Cl,736
7,CCCCN1CCN(CC(O)CNC(=O)Nc2ccc(Cl)cc2)CC1 (stereo not drawn),68.5
8,O=C(Nc1ccc(Oc2ccccc2)cc1)N1CCC(CN2CCC(c3c[nH]c4ccccc34)CC2)CC1,606
9,Oc1ccc(CCCNc2nc(NCc3cccc4ccccc34)nc(NC3CCNCC3)n2)cc1,1130
10,COc1ccc(CN2CCC(CNCC(c3ccccc3)c3ccccc3)CC2)cc1,228
11,CCCCN(CCCC)CCNC(=O)c1cc(OC(F)(F)F)ccc1O,920
12,COc1ccc(CC(C)NCC(O)c2cccc(Br)c2)cc1 (stereo not drawn),961
13,Cc1ccc(NC(=O)c2cccc(CN3CCCN(Cc4cccc(O)c4)CC3)c2)cc1C,1040
14,COc1ccccc1CN1CCC(CNC(=O)c2cc(-c3ccc(N(C)C)cc3)cs2)C1 (stereo not drawn),1270
15,COc1ccc2nccc([C@@H](O)CN3CCC(NC(=O)/C=C/c4ccnc5ccccc45)CC3)c2c1,939
16,Cc1ccc2nc(C)cc(NC(=O)Nc3ccc(N(C)C)cc3)c2c1,541
17,CCOC(=O)C1=C(C)N=c2sc(=Cc3cc(Cl)ccc3O)c(=O)n2C1c1ccc(OC)cc1 (stereo not drawn),746
18,CC(C)(C)c1cc(C(=O)N2CCN(c3ncccc3C(F)(F)F)CC2)n(Cc2ccccc2)n1,251
19,Oc1ccc(CCNc2nc(NCCCOc3cccc(CN4CCCCC4)c3Cl)nc(N3CCNCC3)n2)cc1,1370
20,c1ccc(C2=NN=C(c3ccccn3)C3C4CC(C23)C2C3CC(c5ccccc53)C42)nc1 (stereo not drawn),853
21,N=C(N)Nc1nc(-c2cccc(NC(=O)CCCCCCCON3C(N)=NC(N)=NC34CCCCC4)c2)cs1,43.5
22,O=C(NCCN1Cc2ccccc2C1=O)c1ccc(Oc2ccc(C(=O)NCCN3Cc4ccccc4C3=O)cc2)cc1,361
23,CCN(CC)CCN(Cc1ccc(-c2ccc(C(F)(F)F)cc2)cc1)C(=O)Cn1nc(-c2ccc(C(F)(F)F)cc2)ccc1=O,797
24,O=C1OC(c2ccccc2)(c2ccccc2)CN1C1CCN(Cc2ccc(O)c(Cl)c2)C1 (stereo not drawn),955
25,Cc1nc(-c2nc(NCCc3ccncc3)ncc2-c2ccsc2)sc1C,298

row,SMILES,XC50 [nM]
1,CC1(C)NC(N)=NC(=N)N1OCCSCc1cc(Cl)sc1Cl,3.2
2,CCOc1ccccc1C1CCN(CCCCNC(=O)c2ccc(NC(=O)c3ccc(Cl)cc3)cc2)CC1,846
3,c1cc2[nH]c(CCCCCc3nc4cc(C5=N[C@@H]6CCCC[C@@H]6N5)ccc4[nH]3)nc2cc1C1=N[C@@H]2CCCC[C@@H]2N1,199
4,COc1ccccc1-n1c(-c2ccc3ccccc3c2)csc1=NC(=O)c1ccccc1,204
5,N=C(NCCc1c[nH]c2ccccc12)NCc1ccccc1Cl,112
6,O=[N+]([O-])c1cc(/C=N/Nc2nc3nonc3nc2Nc2ccc(F)cc2)c(Cl)cc1Cl,759
7,Cc1ccc(C(C)C)c(Oc2ccc3nc(N)nc(N)c3c2)c1,10.2
8,N=C(N)NN=Cc1ccc2ccc3ccccc3c2c1,376
9,Cn1cncc1CCN(Cc1ccc(-c2ccc(C(F)(F)F)cc2)cc1)C(=O)Cn1c(CCc2cccc(F)c2F)cc(=O)c2cccnc21,853
10,CC(C)(C)n1nnnc1C(c1cccnc1)N(Cc1ccccc1)Cc1ccc(Cl)cc1 (stereo not drawn),744
11,Cc1nc(N)nc(N)c1-c1ccc(Cl)c(Cl)c1 [METOPRINE],79.6
12,O=C(N[C@@H](Cc1ccccc1)C(=O)NC1CCCc2ccccc21)c1ccc(O)c(-c2ccc(Cl)c(Cl)c2)c1 (stereo partly drawn),209
13,CC(=O)Nc1ccc(C(=O)Nc2ccc(-c3cccc(-c4nc5cc(C(F)(F)F)ccc5[nH]4)c3)cc2)cn1,111
14,Cc1[nH]c(C)c(-c2ccc(Oc3ccc(F)cc3)cc2)c(=O)c1Cl,50.5
15,CCCCCCCCOc1ccc(N2C(N)=NC(N)=NC2(C)C)cc1,502
16,CC(=O)Nc1ccc(Nc2c3ccccc3nc3ccccc23)cc1,1020
17,COc1cc(-c2nc(-c3ccc(C(=O)c4ccc(F)cc4)cc3)c(-c3ccccc3)[nH]2)cc(OC)c1O,659
18,NC(=O)c1ccc(NC(=O)CN(Cc2ccc(Cl)cc2)S(=O)(=O)c2ccccc2)cc1,653
19,CCCCC/C=C/C(=O)NC1CCC(CN2CCC(c3c[nH]c4ccccc34)CC2)CC1 (stereo not drawn),982
20,CS(=O)(=O)c1ccc2c(c1)CCN(CCC1CCC(NC(=O)C(=Cc3ccc(Cl)cc3Cl)c3ccc(-c4ccccc4)cc3)CC1)CC2 (stereo not drawn),1170
21,N#Cc1ccc2[nH]cc(C(=O)CCCCCN(Cc3ccccc3)Cc3ccccc3)c2c1,785
22,CN1CCN(c2ccc(Nc3ncc([N+](=O)[O-])c(Nc4ccccc4O)n3)cc2)CC1,723
23,CCC(C)CN1CCN(c2ccc(NC(=O)c3cccs3)cc2)CC1C (stereo not drawn),655
24,COc1ccc(CNc2ccc3nc(N)nc(N)c3c2)cc1,172
25,COc1cc(NC(=O)/C=C/c2cccc3ccoc23)ccc1OCCN(C(C)C)C(C)C,1040

row,SMILES,XC50 [nM]
1,COc1cc(-c2ccc3c(-c4ccc(C(=O)N5CCN(C)CC5)cc4)n[nH]c3n2)cc(OC)c1OC,1330
2,COc1ccc(Cl)cc1N1CCN(CCCNC(=O)c2ccc(-c3nc4cc(Cl)c(C)cc4[nH]3)c(F)c2)CC1,185
3,O=C(Nc1ccc(OC2CCN(Cc3ccc(F)cc3)CC2)c(Cl)c1)c1ccoc1,1180
4,NC(=O)CN1CC=C(c2c[nH]c3ccc(Br)cc23)CC1,1100
5,O=S(=O)(NCCN1CCCC1)c1ccc(-c2cccc(CNC3Cc4ccccc4C3)c2)cc1F,1020
6,COc1ccc(Nc2ncc3c(-c4cccc(NC(=O)c5ccc(N)cc5)c4)c[nH]c3n2)cc1OC,975
7,CCC(C)NCCC(c1ccccc1)c1ccccc1O (stereo not drawn),788
8,CCc1cc2c(Sc3nc4ccccc4[nH]3)ncnc2s1,823
9,CCCN(Cc1nnc(-c2ccco2)o1)C(=O)C1CCCN(C(=O)c2ccc(Cl)cc2)C1 (stereo not drawn),518
10,O=c1[nH]nc(-c2ccc(N3CCCC3)c([N+](=O)[O-])c2)c2ccccc12,631
11,O=C(NC1CCN(c2ccnc3cc(Cl)ccc23)C1)c1cccc(F)c1 (stereo not drawn),179
12,O=C(NCCN1CCOCC1)c1ccc(CNC(=O)c2ccc(O)c(-c3ccc(Cl)c(Cl)c3)c2)cc1,929
13,O=C(c1ccccc1F)N(Cc1ccc(Cl)cc1)c1ccccn1,1020
14,C(=Cc1ccccc1)C=NN=c1cc[nH]c2ccccc12,725
15,Cc1ccn2c(N(Cc3ccccc3)C(=O)c3ccc(Cl)c(Cl)c3)c(-c3ccccc3)nc2c1,987
16,Nc1nccc2ccc(OC3CCCCC3)cc12,602
17,Cc1ccc(C)c(NC(=O)CC2C(=O)N(c3ccccc3)C(=S)N2Cc2ccco2)c1 (stereo not drawn),570
18,COc1ccc(OC)c(NC(=O)C2c3ccccc3C(=O)N(CC(C)C)C2c2cccs2)c1 (stereo not drawn),805
19,N#Cc1ccccc1C(=O)N(Cc1cncn1Cc1cccc(F)c1)CC1CC1,734
20,Oc1cccc(Nc2ccnc3cc(-c4cc5ccccc5o4)ccc23)c1,763
21,O=C(Nc1ccc(CCNCc2ccccc2)cc1)Nc1ccc(OC(F)(F)F)cc1,584
22,CC[C@H](C)CNC(=O)c1ccnc(-c2ccc(CNCCCc3ccccc3)cc2)c1,1230
23,CC[C@H](C)CNC(=O)c1cncc(-c2ccc(CNCCCc3ccccc3)cc2)c1,735
24,Cc1cccc(C(=O)Nc2ccnc(N(C)C3CCN(Cc4cccc(O)c4)CC3)c2)c1,944
25,CC(C)C[C@H](Nc1ccnc(NCC2CCCCC2)n1)C(=O)NCCc1ccccc1,750

row,SMILES,XC50 [nM]
1,O=C(Nc1ccc(F)cc1)NC1CCN(c2ccnc3cc(Cl)ccc23)CC1,408
2,Cc1nc(-c2ccc(-c3ccc(C(=O)Nc4ccc5c(c4)C4(CCNCC4)CO5)cc3)c(C)c2)no1,858
3,N=c1n(Cc2ccc(Cl)cc2)c2ccccc2n1CC(O)c1ccc(Cl)c(Cl)c1 (stereo not drawn),677
4,O=C(Nc1ccc(I)cc1)Nc1ccc(Cn2ncc(N3CCCNCC3)c(Cl)c2=O)cc1,1120
5,CC[C@H]1CN2CCc3cc(OC)c(OC)cc3[C@@H]2C[C@@H]1C[C@H]1NCCc2c1cc(OC)c(OC)c2Br,650
6,CC(C)CCCC(C)NC[C@@H](O)[C@H](Cc1ccccc1)NC(=O)c1cc(N2CCCC2=O)cc(N(c2ccccc2)S(C)(=O)=O)c1 (stereo partly drawn),58.4
7,N=C(NCc1ccc(O)cc1)Nc1nc(-c2ccc(OCCCn3ccnc3)cc2)cs1,749
8,Oc1ccccc1N1CCN(c2ccc(-c3nc4ccccc4[nH]3)cn2)CC1,1130
9,O=C(Nc1cccc(CN2CCCN(Cc3cccnc3)CC2)c1)c1ccc(Cl)c(Cl)c1,928
10,CC(C)CCNC(=O)c1cc(C(=O)c2cc(F)ccc2O)cn(CCC(C)C)c1=O,753
11,COc1ccc(-c2onc(C(F)(F)F)c2-c2ccc(Br)cc2)c(O)c1,237
12,CC(=O)Nc1[nH]c(-c2ccccc2)nc1C(N)=O,249
13,Cc1[nH]c(C)c(-c2ccc(-c3ccc(OCC(F)(F)F)cc3)nc2)c(=O)c1Cl,389
14,CCOc1ccc2c(c1)N(C(=O)C=Cc1ccccc1)C(C)(C)c1ssc(=S)c1-2,1150
15,CC(C)CNCc1ccc(-c2cccc(CN(CCN(C)C)C(=O)CCC3CCCC3)c2)cc1,809
16,CC1CCCCN1CCCNc1nc(NCc2ccccc2)c2ccccc2n1 (stereo not drawn),953
17,O=C(NC1CCC(CN2CCC(c3c[nH]c4ccccc34)CC2)CC1)c1[nH]c(=O)[nH]c(=O)c1F (stereo not drawn),796
18,O=C(Nc1cccc(-c2cccc(-c3nc4cc(F)ccc4[nH]3)c2)c1)c1csnn1,788
19,CC(Cc1ccc(C(=O)OC(c2ccccc2)c2ccccc2)cc1)NCC(O)c1ccccc1 (stereo not drawn),178
20,COc1ccc(N2CCN(CCCCNC(=O)c3ccc(NC(=O)c4cc(C(F)(F)F)cc(C(F)(F)F)c4)cc3)CC2)c(OC)c1,153
21,Cc1cccc2nc(-c3ccc(-c4cccc(CNCCCN5CCCC5=O)c4)s3)[nH]c12,590
22,Cn1c(NC(=O)c2ccc(CNC(=O)c3ccc(O)c(-c4ccc(Cl)c(Cl)c4)c3)cc2)nc2ccccc21,842
23,COc1ccc(NC(=O)[C@H](CC(C)C)Nc2ccnc(Nc3ccccc3)n2)cc1,1570
